# According to US8236784B2, “Composition comprising threitol phosphate and salts thereof” (Sunny Biodiscovery, Inc., priority 2007, dated 2012):
# Tested on: adult human epidermal keratinocytes (aHEK)
# Assay: Proliferation of adult human epidermal keratinocytes (aHEK)
# Assay type: cell-based
# Conditions: 100 ug/ml; vs water (0 μg/ml)
# Description: Example 3(e): FIG. 6 depicts the effect of threitol-1 diphosphate on the proliferation of adult human epidermal keratinocytes (aHEK).
smiles,measurement,value
"O=P(O)(O)OP(=O)(O)OC[C@@H](O)[C@H](O)CO [DP sSBD4, threitol-1-diphosphate]",stimulation of human adult epidermal keratinocyte proliferation,17%
